Experimental data taken from patent publication US20130172294A1, “Treatment with VB-201” (Vascular Biogenics Ltd., priority 2010, published 2013).
“Also recorded” adds a separate entry of the source. Read-outs that look alike come from different tables or passages of the source.

Legend:
[1] = Safety and tolerability of repeated doses 40 and 80 mg (Example 4); assay type: in vivo, human
From the text: Safety and tolerability of VB-201 was judged by evaluating the incidence of abnormal findings in the following measurements: vital signs: systolic and diastolic blood pressure, heart rate, respiratory rate, body temperature; physical examination; 12-lead electrocardiogram; laboratory tests of blood samples for: complete blood count, prothrombin time/partial thromboplastin time, LDL- and HDL-cholesterol, total cholesterol, triglycerides, glucose, blood urea nitrogen, sodium, potassium, creatinine, calcium, phosphorus, creatinine phosphokinase, lactate dehydrogenase, aspartate transaminase, alanine transaminase, γ-glutamyl transferase, alkaline phosphatase, protein, albumin, total bilirubin, total IgM and IgG antibodies, interleukin-12/23 p40, tumor necrosis factor-α, and interleukin-6, as well as routine urinalysis; and all adverse events, whether or not considered serious, and whether or not considered related to the investigational agent, according to the criteria for Good Clinical Practice. Treatment-emergent adverse events were defined as any adverse event that started on or after administration of the first dose of VB-201, and no more than 30 days after administration of the last dose, or are ongoing at the time of the first dose and worsened in severity or frequency during treatment. […] The subjects were all healthy volunteers. […] 6 subjects received a placebo. […]

[2] = system: collagen-induced arthritis; details: in vivo animal model; cited from earlier work
C-reactive protein (CRP) = system: C-reactive protein (CRP)
Procedure: C-reactive protein (CRP) levels in plasma samples were measured using a CRP Latex assay kit (Olympus) and an AU400® immuno-analyzer (Olympus).
A randomized, double-blind, placebo-controlled study was performed to in order to investigate the safety, tolerability and pharmacokinetics of VB-201 at a repeated, daily dose taken orally. The subjects were all healthy volunteers. Cohorts of six subjects each received a daily dose of 40 or 80 mg VB-201 in the morning, following at least 10 hours of fasting, for 14 days. 6 subjects received a placebo. The VB-201 was formulated in non-enterocoated capsules.
Further studies were performed on an additional cohort, which included six subjects receiving a daily dose of 80 mg VB-201, as described hereinabove, for 28 days. An additional two subjects received a placebo.
Plasma samples obtained on day 0 (pre-dosing) and on day 14 from the subjects in each cohort (40 mg for 14 days, 80 mg for 14 days, and 80 mg for 28 days), and on day 28 from the subjects of the cohort receiving 80 mg VB-201 for 28 days, were assayed for C-reactive protein (CRP) by the high sensitivity CRP assay described hereinabove.

For CCCCCCCCCCCCCCCCOCC(COP(=O)([O-])OCC[N+](C)(C)C)OCCCCC(=O)O (stereo not drawn) [VB-201, 1-hexadecyl-2-(4′-carboxybutyl)-glycerol-3-phosphocholine], the serious adverse events ([1]; daily 40 or 80 mg, 14 or 28 day cohorts) is listed as “No serious adverse events were reported”, the safety and tolerability ([1]; daily doses of up to 80 mg for up to 28 days) is listed as “both safe and well-tolerated; also recorded: well-tolerated by subjects, and no substantial toxicity was observed” and the “efficacy in collagen-induced arthritis” value [2] is listed as “effective”. The “reduction of plasma CRP levels” value (C-reactive protein (CRP); 40 mg per day for 14 days) was 49%, the “reduction of plasma CRP levels” value (C-reactive protein (CRP); 80 mg per day for 14 days) was 43% and the “reduction of plasma CRP levels” value (C-reactive protein (CRP); 80 mg per day for 28 days) was 45%.
